Test results as given in EP0675728B1, “PRODUCTS AND METHODS FOR IMPROVING KE[…] TO THE DERMIS” (STATE OF OREGON BY AND THROUGH OREGON STATE BOARD OF HIGHER …, priority 1992, dated 1994).

Legend:
keratinocytes = conditions: just-subconfluent keratinocyte cultures, 60 minutes' incubation; BM165 mAb 50 µg/mL, 10-mM EDTA
Method: Cells were grown in Keratinocyte Growth Medium (KGM) containing 0.15 mM CaCl2 and subcultured according to the manufacturer's instructions (Clonetics). For most immunocytochemical experiments, first- or second-passage cells were grown in glass or plastic chamber slides (Lab-Tek) or on glass cover slips to approximately 80 percent confluency. For large-scale collection, spent-media cells were grown in 150-cm^2 tissue culture dishes and fed three times per week with 15 mL fresh media.
Keratinocytes were grown to near confluence and either fixed immediately (FIGS. 4B and 4D) or washed with PBS and incubated with BM165 mAb (50 µg/mL) followed by 5-nm gold-conjugated secondary antibody prior to fixation (FIGS. 4A and 4C).
To further pursue these observations, just-subconfluent keratinocyte cultures were separately incubated with purified BM165 mAb for 10 and 60 minutes. After incubation, the cultures were photographed (FIGS. 5A-F). Purified mAbs in PBS, PBS alone, or 10-mM EDTA were incubated with keratinocytes in parallel. Parallel cultures were also incubated with anti-type-VII monoclonal IgG in PBS for the corresponding same length of time.

| SMILES | rounding and detachment of the keratinocytes (keratinocytes) | rounding and detachment of dermal fibroblasts (Dermal fibroblasts) | secretion of kalinin into the medium (secretion of kalinin) |
| --- | --- | --- | --- |
| O=C(O)CN(CCN(CC(=O)O)CC(=O)O)CC(=O)O [EDTA] | extensive rounding and detachment | rounded and detached |  |
| COc1cc2c(c(OC)c1OC)-c1ccc(OC)c(=O)cc1[C@@H](NC(C)=O)CC2 [colchicine] |  |  | inhibited |
